Results as given in patent publication US20090092740A1, “METHOD FOR INCREASING LONG-TERM STORAGE OF CUT FLOWERS” (GREENOY LTD., priority 2006, published 2009).

Test system: cut Rose Flowers (Akito and Red One varieties)
Conditions: several ppm in acrylic emulsion (tested 0.8 to 11.2 ppm); stored at 2° C. for one month; FIG. 1
Experimental: The flowers were dipped in several emulsions that included several concentration of STS (diluted from 8 g/l by taking from 0.1 to 1.4 ml per liter), ranging from 0.8 to 11.2 ppm. A bunch of roses, flowers and leaves, was dipped in the solution at each concentration for 2 seconds three times. Each treatment included 10 flowers. After the dip process, the flowers were put on a net for 10 minutes, so that an excess solution could drain off. The flowers were kept in an impregnation box at 2° C. for one month, and then they were allocated in vases for quality and shelf life assessments. The quality and appearance of the flowers were checked every day (FIG. 1).

## silver thiosulfate
  quality of the stored roses: improves the quality of the stored roses
